Measurements taken from patent US20250213701A1, “MEDICAMENT FOR TREATING HUMAN TUMOR BASED ON ERF3A-TARGETING PROTEOLYSIS MECHANISM” (SUZHOU DEGEN BIO-MEDICAL CO., LTD., priority 2022, published 2025).

Tests used:
Assay type in all cases: cell-based, human
[1] = test system: VCaP cells; assay: Anti-proliferative toxicity against prostate cancer cell line Vcap (CCK8); details: 3 days; for IC50: Homo sapiens, 72 h, CCK8
How it was run: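 VCaP cells (DMEM, 10% FBS) seeded 20000 cells/well, cultured 72 h, then exposed in triplicate to compound at final well concentrations of 0.00001–0.16 μM for 3 days at 37 °C, 5% CO2. Viability by CCK8, 1–4 h at 37 °C, absorbance at 450 nm.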

[2] = test system: 22Rv1 cells; assay: Anti-proliferative toxicity against prostate cancer cell line 22Rv1 (CCK8); details: 3 days; for IC50: Homo sapiens, 72 h, CCK8
How it was run: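 22Rv1 cells pre-cultured for 48 h, then exposed to compounds at 0.00001-1.0 μM final, in triplicate, for 3 days. Viability read by CCK8 absorbance at 450 nm after 1-4 h at 37 °C.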

[3] = test system: PC-3 cells; assay: Anti-proliferative toxicity against prostate cancer cell line PC-3 (CCK8); details: Homo sapiens, 72 h, 3 days
How it was run: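 PC-3 cells (4000/well, pre-cultured 24 h) exposed in triplicate to compound at final 0.00001-1.0 μM for 3 days at 37 °C, 5% CO2. Viability read by CCK8, 1-4 h at 37 °C, absorbance at 450 nm.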

| Structure (SMILES) | Anti-proliferative toxicity data in VCaP cells ([1]; 0.00001 μM) | Anti-proliferative toxicity data in VCaP cells ([1]; 0.00005 μM) | Anti-proliferative toxicity data in VCaP cells ([1]; 0.00010 μM) | Anti-proliferative toxicity data in VCaP cells ([1]; 0.00030 μM) | Anti-proliferative toxicity data in VCaP cells ([1]; 0.00100 μM) | Anti-proliferative toxicity data in VCaP cells ([1]; 0.00300 μM) | Anti-proliferative toxicity data in VCaP cells ([1]; 0.00600 μM) | Anti-proliferative toxicity data in VCaP cells ([1]; 0.03200 μM) | Anti-proliferative toxicity data in VCaP cells ([1]; 0.16000 μM) | IC50 [1] | Anti-proliferative toxicity data in 22Rv1 cells ([2]; 0.00001 μM) | Anti-proliferative toxicity data in 22Rv1 cells ([2]; 0.00006 μM) | Anti-proliferative toxicity data in 22Rv1 cells ([2]; 0.00032 μM) | Anti-proliferative toxicity data in 22Rv1 cells ([2]; 0.00160 μM) | Anti-proliferative toxicity data in 22Rv1 cells ([2]; 0.00800 μM) | Anti-proliferative toxicity data in 22Rv1 cells ([2]; 0.04000 μM) | Anti-proliferative toxicity data in 22Rv1 cells ([2]; 0.20000 μM) | Anti-proliferative toxicity data in 22Rv1 cells ([2]; 1.00000 μM) | IC50 [2] | IC50 [3] |
| --- | --- | --- | --- | --- | --- | --- | --- | --- | --- | --- | --- | --- | --- | --- | --- | --- | --- | --- | --- | --- |
| C[C@]12C=CC(=O)N[C@@H]1CC[C@@H]1[C@@H]2CC[C@]2(C)[C@@H](C(=O)Nc3cccc(N[C@@H]4CCC[C@@H](Nc5cccc6c5C(=O)N(C5CCC(=O)NC5=O)C6=O)C4)c3)CC[C@@H]12 (stereo partly drawn) [C59, N-(3-(N—(N-(4-(2-(3-(2,6-dioxopiperidine))-isoindole-1,3-dione))-1R,3R-cyclohexanediamine))phenyl)-3-oxo-4-aza-5α-androst-1-ene-17β-carboxamide] | 0.6% | 62.5% | 78.6% | 88.3% | 92.7% | 93.5% | 94.1% | 94.6% | 94.6% | ≤ 0.1 nM | 8.3% | 41.3% | 79.6% | 80.7% | 81.1% | 81.1% | 81.9% | 82.3% | 0.1 to 10 nM | 0.1 to 10 nM |
| C[C@]12C=CC(=O)N[C@@H]1CC[C@@H]1[C@@H]2CC[C@]2(C)[C@@H](C(=O)Nc3cccc(N[C@@H]4CCC[C@@H](Nc5cccc6c5C(=O)N([C@H]5CCC(=O)NC5=O)C6=O)C4)c3)CC[C@@H]12 [C63, N-(3-(N—(N-(4-(2-(3S-(2,6-dioxopiperidine))-isoindole-1,3-dione))-1R,3R-cyclohexanediamine))phenyl)-3-oxo-4-aza-5α-androst-1-ene-17β-carboxamide] | 25.2% | 75.7% | 80.2% | 89.2% | 93.1% | 94.0% | 94.3% | 94.5% | 94.8% | ≤ 0.1 nM | 23.5% | 62.4% | 76.5% | 87.8% | 86.5% | 88.0% | 86.9% | 84.5% | 0.1 to 10 nM | 0.1 to 10 nM |
